These results are taken from patent US6359015B1, “Method for antagonizing inhibition effects of alcohol on cell adhesion” (The United States of America as represented by the …, priority 2000, dated 2002).

As usually defined, the IC50 is the midpoint of a concentration-inhibition curve.

Series [1] relates to BMP-7 treated NG108-15 neuroblastoma×glioma cells. The series can be described thus: Cell-cell adhesion (short-term aggregation) assay in BMP-7 treated NG108-15 cells. The class given is cell-based, rat and mouse. As to conditions: for Inhibition of cell-cell adhesion (in words): both cellular systems (NG108-15 + BMP-7 and L1-expressing NIH/3T3). The protocol:
NIH/3T3 cells were cultured in Dulbecco's minimum Eagle medium (DMEM) (Life Technologies, Gaithersburg, Md.) supplemented with 10% normal calf serum (Intergen, Purchase, N.Y.) and 400 μg/ml G418 (Life Technologies). NG108-15 neuroblastoma×glioma cells (passages 21 to 30) were plated in serum-free, defined medium (Reference 16). At the start of the morphogenetic and cell adhesion assays, serum-free medium containing BMP-7 (Creative BioMolecules, Hopkinton, Ma.) (1-40 ng/ml, final) was added daily to the NG108-15 cells. Both cell lines were cultured at 37° C., in an atmosphere of 90% air and 10% CO2. Three NIH/3T3 subclones were utilized in these studies: 2B2-L1, 2A2-L1 and Vec-1A5. The 2B2-L1 and 2A2-L1 cell lines are subclones derived from a stable transfection of NIH/3T3 cells with the human L1 cDNA, and Vec-1A5 is a subclone from a transfection with the empty expression vector (Reference 12).
Cells were cultured and cell adhesion assays were performed in the absence and presence of the alcohols listed below in Table 1. The concentrations of alcohols used in the adhesion assays were calculated to produce membrane concentrations equivalent to 50-100 mM ethanol. Membrane/buffer partition coefficients (Pm/b) were obtained or were calculated from published octanol/water partition coefficients (Reference 15). Molar volumes were obtained from published sources (References 15) or were calculated from molecular weights and densities at 20° C.
(§1) Cell-cell adhesion was measured using a modified short-term aggregation assay of sub-confluent cells (Reference 12). Cells were detached by gentle agitation, mechanically dissociated to obtain a single-cell suspension, and diluted in PBS supplemented with 0.1 mg/ml DNase to 350,000 cells/ml for the NIH/3T3 cells, and 250,000 cells/ml for the NG108-15 cells. One ml of the cell suspension was added per well (4.5 cm^2) of a 12-well plate. After addition of the alcohols, the cells were gently mixed and mechanically shaken for 30 minutes at room temperature on an orbital shaker set at 60 to 80 rpm. Cells were viewed at a final magnification of 200×, and each well was scored for single and adherent cells in five or six microscopic fields of view. We counted approximately 100 cells per field of view and 600 cells per well. The percentage of adherent cells was calculated for each microscopic field of view and averaged. To calculate the magnitude of ethanol inhibition, we subtracted the values for cell adhesion with the Vec-1A5 cells from those of the 2B2-L1 or 2A2-L1 cell lines. Similarly, the values for cell adhesion in NG108-15 cells cultured in serum-free medium were subtracted from those of NG108-15 cells treated with BMP-7.
We tested the effects of a series of alcohols on cell-cell adhesion in two well-characterized model systems. NG108-15 cells were incubated for 48 hours in a serum-free medium supplemented with 10-20 ng/ml BMP-7 to induce L1 and N-CAM gene expression (Reference 10). Parallel experiments were performed using two ethanol-sensitive NIH/3T3 cell lines transfected with human L1 (2B2-L1 and 2A2-L1) (Reference 12) and a NIH/3T3 cell line transfected with the empty expression vector (1A5-V).

The subject of the next series is NG108-15 cells. Briefly: BMP-7 morphogenesis (cell clusters) in NG108-15 cells. The class given is cell-based, rat and mouse. The conditions noted are these: 3 days; for Antagonism of ethanol inhibition of BMP-7 morphogenesis: 50 mM ethanol and 0.05 mM 1-octanol. The protocol:
NG108-15 cells were plated from suspensions of single cells at a density of 50,000 cells/well in poly-D-lysine-coated, 6-well plated containing serum-free medium in the absence or presence of BMP-7, as described (References 17-18). […] Control cultures were treated similarly. The media for all cells was replaced daily following the addition of ethanol. […] A cell cluster was defined as a group of three or more cells that adhered to each other along at least one quarter of their cell bodies (Reference 19). The percentage of cells in clusters was calculated by dividing the number of cells present in clusters by the total number of cells (150 to 200) in each field. Values obtained for each field of a treatment group were then averaged.
Treatment with BMP-7 for 48 hours causes NG108-15 cells to grow in clusters of adherent cells (BMP-7 morphogenesis), rather than as predominantly single cells.
The percentage of cells in clusters of three or more cells was scored from two separate fields viewed under 200×magnification.

For series [2] the following is noted: published or calculated from molecular weight and density at 20° C.; cited from earlier work.
Series [3] concerns Myeloma cells transfected with L1. The conditions noted are these: References 14 and 21; cited from earlier work.
Series [4] has as its system insect SF9 cells transfected with L1. As to conditions: References 14 and 21; cited from earlier work.
The subject of series [5] is BMP-7 treated NG108-15 cells. The series can be described thus: Antagonism of short-chain alcohol inhibition of cell adhesion in BMP-7 treated NG108-15 cells. The class given is cell-based, rat and mouse. The protocol:
as §1

Series [6] relates to NIH/3T3-L1 (2B2-L1) cells. Briefly: Antagonism of 1-butanol inhibition of cell adhesion in NIH/3T3-L1 (2B2-L1) cells. The class given is cell-based, rat. As to conditions: 1-octanol 5 and 50 μM, 2B2-L1 cells. The procedure: as §1, with “BMP-7. […]” for “BMP-7.”
A further series concerns the target T1, GIRK ¼ potassium channel (Homo sapiens, UniProt P48544+P48549).
T1 sequence (P48549 1-501): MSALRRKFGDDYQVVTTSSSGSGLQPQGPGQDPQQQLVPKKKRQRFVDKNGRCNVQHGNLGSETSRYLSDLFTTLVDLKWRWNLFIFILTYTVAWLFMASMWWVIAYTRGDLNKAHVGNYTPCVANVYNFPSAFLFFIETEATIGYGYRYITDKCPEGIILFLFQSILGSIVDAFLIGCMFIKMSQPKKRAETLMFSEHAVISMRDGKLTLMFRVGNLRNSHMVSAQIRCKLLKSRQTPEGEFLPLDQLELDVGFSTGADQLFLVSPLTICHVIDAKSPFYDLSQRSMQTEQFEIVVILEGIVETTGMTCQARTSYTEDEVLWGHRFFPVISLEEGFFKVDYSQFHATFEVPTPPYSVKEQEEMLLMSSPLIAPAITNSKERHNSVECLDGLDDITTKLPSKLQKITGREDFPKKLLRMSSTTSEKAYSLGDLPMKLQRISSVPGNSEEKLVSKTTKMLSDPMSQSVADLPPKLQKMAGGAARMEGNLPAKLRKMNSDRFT
T1 sequence (P48544 1-419): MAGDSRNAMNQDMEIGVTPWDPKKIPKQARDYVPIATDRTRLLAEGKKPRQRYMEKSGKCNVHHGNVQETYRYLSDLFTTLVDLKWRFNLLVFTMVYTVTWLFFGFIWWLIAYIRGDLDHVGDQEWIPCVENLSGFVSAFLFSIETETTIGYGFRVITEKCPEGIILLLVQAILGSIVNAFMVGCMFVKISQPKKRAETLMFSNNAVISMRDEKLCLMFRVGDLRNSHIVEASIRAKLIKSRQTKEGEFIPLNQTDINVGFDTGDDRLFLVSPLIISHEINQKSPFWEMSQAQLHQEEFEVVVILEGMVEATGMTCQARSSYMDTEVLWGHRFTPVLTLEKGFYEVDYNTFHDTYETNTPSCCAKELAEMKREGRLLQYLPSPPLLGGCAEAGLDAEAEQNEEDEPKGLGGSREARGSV
As to conditions: Reference 20; cited from earlier work.

The conditions of series [7]: from published source or octanol/water partition coefficient divided by 5; cited from earlier work.

“Also recorded” adds a separate entry of the source. Like-named read-outs stand apart in the source and are kept apart here.

Regarding `CCO` [ethanol], the “Inhibition of cell-cell adhesion (in words)” value in series [1] is reported as “maximally inhibited”. Further, in the series with NG108-15 cells (50 mM ethanol, 0.1-40 ng/ml BMP-7), the “Inhibition of BMP-7 morphogenesis (percentage of cell clusters)” value was “inhibited significantly”. In addition, the Vm molar volume in [2] was 58 mL/mol. In addition, the “Sensitivity of L1-transfected myeloma cells to ethanol” value in series [3] was “insensitive”. In series [4], the “Sensitivity of L1-transfected insect SF9 cells to ethanol” value is on record as “insensitive”.

On to `CCCCCCCCO` [1-octanol], for which the “Inhibition of cell-cell adhesion (in words)” value in series [1] is listed as “not inhibited”. Besides, in series [1] (concentrations 5-10 fold higher than those reported in Table 1), the “Inhibition of cell-cell adhesion at higher concentrations (in words)” value is recorded as “inactivity”. The “Antagonism of inhibition of cell-cell adhesion by 1-butanol (in words)” value in series [5] (2 mM 1-butanol, BMP-7 treated NG108-15 cells) is “completely abolished”. In addition, the “Antagonism of the effects of 3-methyl-1-butanol on cell adhesion (in words)” value in series [5] (3 mM 3-methyl-1-butanol) is recorded as “abolished”. Also, the “Antagonism of the effects of ethanol on cell adhesion (in words)” value in series [5] (100 mM ethanol) is “abolished”. The IC50 in series [5] (NG108-15, read-out: IC50 for antagonism of 1-butanol (and ethanol) inhibition of cell-cell adhesion) turned out to be 3.6 µM; in [5] (NG108-15, read-out: IC50 for antagonism of 1-butanol inhibition of cell-cell adhesion), 3.6 µM. Further, the “Potency of antagonism relative to 1-pentanol” value in series [5] (ratio of IC50 values) is “approximately 200 times”. For the same molecule, the “Mechanism of antagonism of 1-butanol inhibition (in words)” value in [6] was “complete, reversible, and non-competitive; also recorded: reduced the maximal effectiveness”. Also, the “Antagonism of ethanol inhibition of BMP-7 morphogenesis” value with NG108-15 cells was “antagonized”; in the series with NG108-15 cells (listed as Octanol), “completely abolished”. The Vm molar volume in series [2] is 158 mL/mol. For the same molecule, at GIRK ¼ potassium channel, the “Antagonism of ethanol enhancement of GIRK ¼ potassium channel activity” value is recorded as “did not antagonize”. Besides, the “P(m/b) membrane/buffer partition coefficient” value in series [7] is listed as 189.
